Literature values in patent publication US20230248791A1, “METHODS FOR MANUFACTURING ANGELICA GIGAS NAKAI EXTRACT USING FERMENTATION BACTERIA” (Sooy-K Co., Ltd., priority 2022, published 2023).

Key:
[1] = tested on: ex vivo 3D human skin model
cyclooxygenase-2 (COX-2) = biological target: T1, cyclooxygenase-2 (COX-2) (Homo sapiens, UniProt P35354)
T1 sequence (P35354 18-604): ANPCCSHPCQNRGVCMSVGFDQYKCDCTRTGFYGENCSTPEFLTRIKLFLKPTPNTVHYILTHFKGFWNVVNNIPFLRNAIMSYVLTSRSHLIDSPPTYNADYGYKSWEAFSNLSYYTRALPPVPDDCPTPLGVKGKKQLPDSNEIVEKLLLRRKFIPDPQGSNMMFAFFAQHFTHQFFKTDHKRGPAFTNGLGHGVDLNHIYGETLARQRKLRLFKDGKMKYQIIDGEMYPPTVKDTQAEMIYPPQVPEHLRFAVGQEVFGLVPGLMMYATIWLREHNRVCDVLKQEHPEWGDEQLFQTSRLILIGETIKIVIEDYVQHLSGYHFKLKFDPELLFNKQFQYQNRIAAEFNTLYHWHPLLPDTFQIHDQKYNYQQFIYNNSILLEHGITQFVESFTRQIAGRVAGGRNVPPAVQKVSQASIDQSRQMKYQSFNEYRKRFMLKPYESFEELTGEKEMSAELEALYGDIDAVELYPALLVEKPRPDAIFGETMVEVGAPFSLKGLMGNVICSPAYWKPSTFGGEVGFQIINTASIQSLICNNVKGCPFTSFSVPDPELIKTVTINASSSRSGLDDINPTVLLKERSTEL

[2] = tested on: microphthalmia-associated transcription factors (MITFs); conditions: via PKA/CREB, p38/ERK MARK, PI3K/Akt/GSK-3β

effect on COX-2 (anti-inflammatory mechanism) (cyclooxygenase-2 (COX-2)): inhibiting cyclooxygenase-2 (COX-2)
SMILES: CC(C)=CC(=O)OC1Cc2cc3ccc(=O)oc3cc2OC1(C)C (stereo not shown) [decursin, 3-methyl-2-butenoic acid 2,2-dimethyl-8-oxo-3,4-dihydro-2H,8H-pyrano[3,2-g]chromen-3-yl ester]
UVA/UVB-induced skin damage and skin aging (human dermal fibroblast): inhibits UVA/UVB-induced skin damage and skin aging | melanin synthesis [1]: prevents melanin synthesis | effect on MITFs, major transcription factor in melanin synthesis [2]: inhibit
